Among the data in patent publication US8148391B2 (Cephalon, Inc., priority 2006, dated 2012) are IC50 values, retold here.

pIC50: −log10 of the molar value. Like-named read-outs stand apart in the source and are kept apart here.

Assay [1] addresses T1, c-Met (cytoplasmic domain) (Homo sapiens, UniProt P08581).
T1 construct: 10 ng/mL c-Met (cytoplasmic domain, Invitrogen Corporation #PV3143); purchased Invitrogen Corporation PV3143
Nature of the assay: c-Met Kinase Assay (same methods as for ALK, with modifications). It counts as biochemical. The following applies: c-Met kinase inhibition, 1 μM ATP. The essentials: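 Europium-labeled PT66 antibody (Eu-N1) detects substrate phosphorylation on wells coated with phospholipase C-γ at 10 μg/mL. The kinase, the cytoplasmic domain of c-Met at 10 ng/mL, starts the reaction, which proceeds 15 minutes at 37° C.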

Assay [2] addresses T2, baculovirus-expressed ALK (Homo sapiens, UniProt Q9UM73).
T2 construct: host or cells: baculovirus expression system
Nature of the assay: ALK Kinase Assay (ELISA-type, time-resolved fluorescence). It counts as biochemical. The following applies: ALK kinase inhibition, 1 μM ATP; read-out: ALK Activity. The essentials: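 Plates coated with phospholipase C-γ substrate (10 μg/mL in TBS); reaction started with 30 ng/ml ALK and run 15 min at 37° C. Phosphorylated substrate detected with Eu-N1-labeled PT66 antibody. IC50 from sigmoidal variable-slope fit of percent inhibition vs log concentration.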

T1 sequence (P08581 956-1390 limits assumed): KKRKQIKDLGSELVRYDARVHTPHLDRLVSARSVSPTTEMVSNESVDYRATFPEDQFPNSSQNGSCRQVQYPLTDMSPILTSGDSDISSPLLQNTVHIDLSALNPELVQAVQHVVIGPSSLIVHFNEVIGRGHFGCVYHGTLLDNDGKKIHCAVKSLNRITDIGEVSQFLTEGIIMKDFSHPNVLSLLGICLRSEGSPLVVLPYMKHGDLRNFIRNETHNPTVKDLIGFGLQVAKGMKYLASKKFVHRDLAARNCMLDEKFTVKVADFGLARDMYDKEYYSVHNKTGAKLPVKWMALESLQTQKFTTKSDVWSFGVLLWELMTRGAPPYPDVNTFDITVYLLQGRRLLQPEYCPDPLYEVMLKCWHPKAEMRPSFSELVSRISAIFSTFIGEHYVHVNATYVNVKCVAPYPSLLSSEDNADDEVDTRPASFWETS
T2 sequence (Q9UM73 19-1620): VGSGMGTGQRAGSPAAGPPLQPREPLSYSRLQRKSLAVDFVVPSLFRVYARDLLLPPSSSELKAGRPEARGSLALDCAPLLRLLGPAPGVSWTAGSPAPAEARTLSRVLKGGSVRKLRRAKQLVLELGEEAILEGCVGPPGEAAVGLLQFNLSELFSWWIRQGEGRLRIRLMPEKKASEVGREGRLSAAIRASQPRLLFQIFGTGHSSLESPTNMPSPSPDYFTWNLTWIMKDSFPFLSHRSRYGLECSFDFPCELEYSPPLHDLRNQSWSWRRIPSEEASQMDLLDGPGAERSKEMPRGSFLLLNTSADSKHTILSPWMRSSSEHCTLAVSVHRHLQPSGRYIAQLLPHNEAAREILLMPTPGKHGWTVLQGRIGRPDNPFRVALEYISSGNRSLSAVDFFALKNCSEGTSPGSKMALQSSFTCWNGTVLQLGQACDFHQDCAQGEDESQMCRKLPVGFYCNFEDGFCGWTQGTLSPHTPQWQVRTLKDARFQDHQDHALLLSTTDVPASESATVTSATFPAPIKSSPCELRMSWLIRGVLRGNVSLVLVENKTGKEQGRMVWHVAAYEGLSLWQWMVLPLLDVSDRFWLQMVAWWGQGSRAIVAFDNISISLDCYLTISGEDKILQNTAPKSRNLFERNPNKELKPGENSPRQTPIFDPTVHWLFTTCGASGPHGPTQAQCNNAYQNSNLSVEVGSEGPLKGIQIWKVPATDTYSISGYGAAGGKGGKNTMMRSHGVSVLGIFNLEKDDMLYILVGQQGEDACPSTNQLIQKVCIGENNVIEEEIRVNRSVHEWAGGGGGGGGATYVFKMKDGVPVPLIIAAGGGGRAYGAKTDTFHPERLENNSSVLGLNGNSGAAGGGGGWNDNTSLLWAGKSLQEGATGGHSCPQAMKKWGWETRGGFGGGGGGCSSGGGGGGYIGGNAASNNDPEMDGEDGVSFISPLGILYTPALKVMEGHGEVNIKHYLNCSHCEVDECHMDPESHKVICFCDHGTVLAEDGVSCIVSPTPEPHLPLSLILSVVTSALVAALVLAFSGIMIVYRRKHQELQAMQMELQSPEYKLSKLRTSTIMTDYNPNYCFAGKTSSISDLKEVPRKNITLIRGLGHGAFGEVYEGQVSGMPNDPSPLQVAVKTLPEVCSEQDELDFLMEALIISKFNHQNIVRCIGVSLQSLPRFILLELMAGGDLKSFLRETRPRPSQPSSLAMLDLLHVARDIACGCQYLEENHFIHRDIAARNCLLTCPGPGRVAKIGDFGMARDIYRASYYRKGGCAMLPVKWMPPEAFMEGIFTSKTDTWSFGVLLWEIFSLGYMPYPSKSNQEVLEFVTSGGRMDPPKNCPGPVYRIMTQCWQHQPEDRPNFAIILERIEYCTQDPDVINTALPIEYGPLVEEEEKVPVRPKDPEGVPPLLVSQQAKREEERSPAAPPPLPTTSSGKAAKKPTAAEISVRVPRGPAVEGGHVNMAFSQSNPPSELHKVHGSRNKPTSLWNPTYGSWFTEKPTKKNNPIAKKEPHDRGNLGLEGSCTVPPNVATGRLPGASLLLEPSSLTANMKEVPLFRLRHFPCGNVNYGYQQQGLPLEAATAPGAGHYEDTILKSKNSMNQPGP

As for `CCN1C(=O)CCCc2cc(Nc3ncc(Cl)c(N[C@@H]4CCCC[C@H]4N(C)S(C)(=O)=O)n3)c(OC)cc21` [Example 1678, N-{(1R,2R)-2-[5-Chloro-2-(1-ethyl-8-methoxy-2-oxo-2,3,4,5-tetrahydro-1H-benzo[b]azepin-7-ylamino)-pyrimidin-4-ylamino]-cyclohexyl}-N-methyl-methanesulfonamide], the results for the pIC50 in assay [1] (read-out: cMet Activity) and in assay [2] were 5.00 to 6.00 and greater than 7.00, respectively.
`CCN1C(=O)CCCc2c1ccc(Nc1ncc(Cl)c(N[C@@H]3CCCC[C@H]3N(C)S(C)(=O)=O)n1)c2OC` [Example 1679, N-{(1R,2R)-2-[5-Chloro-2-(1-ethyl-6-methoxy-2-oxo-2,3,4,5-tetrahydro-1H-benzo[b]azepin-7-ylamino)-pyrimidin-4-ylamino]-cyclohexyl}-N-methyl-methanesulfonamide]: the pIC50 in assay [1] (read-out: cMet Activity) was less than 5.00; in assay [2], 6.00 to 7.00.
Consider `CN1C(=O)CCC(C)(C)c2cc(Nc3ncc(Cl)c(N[C@@H]4CCCC[C@H]4N(C)S(C)(=O)=O)n3)ccc21` [Example 1680, N-{(1R,2R)-2-[5-Chloro-2-(1,5,5-trimethyl-2-oxo-2,3,4,5-tetrahydro-1H-benzo[b]azepin-7-ylamino)-pyrimidin-4-ylamino]-cyclohexyl}-N-methyl-methanesulfonamide], for which the pIC50 in assay [1] (read-out: cMet Activity) is 6.00 to 7.00; in assay [2] it was greater than 7.00.
Take `CN(CCC#N)C(=O)c1ccccc1Nc1nc(Nc2ccc3c(c2)CCCC(=O)N3C)ncc1Cl` [Example 1682, 2-[5-Chloro-2-(1-methyl-2-oxo-2,3,4,5-tetrahydro-1H-benzo[b]azepin-7-ylamino)-pyrimidin-4-ylamino]-N-(2-cyano-ethyl)-N-methyl-benzamide]: the pIC50 in assay [1] (read-out: cMet Activity) is 6.00 to 7.00; in assay [2], greater than 7.00.
As for `CS(=O)(=O)N[C@@H]1CCCC[C@H]1Nc1nc(Nc2cc(F)cc3c2OCCNC3=O)ncc1Cl` [Example 1683, N-{(1R,2R)-2-[5-Chloro-2-(7-fluoro-5-oxo-2,3,4,5-tetrahydro-benzo[f][1,4]oxazepin-9-ylamino)-pyrimidin-4-ylamino]-cyclohexyl}-methanesulfonamide], the pIC50 in assay [1] (read-out: cMet Activity) was less than 5.00; in assay [2], 6.00 to 7.00.
On the same counts, the results for `COc1cc(N2CCOCC2)ccc1Nc1nc(Nc2cc(F)cc3c2OCCNC3=O)ncc1Cl` [Example 1684, 9-[5-Chloro-4-(2-methoxy-4-morpholin-4-yl-phenylamino)-pyrimidin-2-ylamino]-7-fluoro-3,4-dihydro-2H-benzo[f][1,4]oxazepin-5-one] are less than 5.00 and greater than 7.00.
Consider `COCCN1CCc2ccc(Nc3ncc(Cl)c(Nc4ccccc4S(=O)(=O)C(C)C)n3)cc2CC1` [Example 1685, 5-Chloro-N*2*-[3-(2-methoxy-ethyl)-2,3,4,5-tetrahydro-1H-benzo[d]azepin-7-yl]-N*4*-[2-(propane-2-sulfonyl)-phenyl]-pyrimidine-2,4-diamine], for which the pIC50 in assay [1] (read-out: cMet Activity) is 6.00 to 7.00; in assay [2], greater than 7.00.
On the same counts, the results for `COCCN1CCc2ccc(Nc3ncc(Cl)c(Nc4ccccc4S(=O)(=O)N(C)C)n3)cc2CC1` [Example 1686, 2-{5-Chloro-2-[3-(2-methoxy-ethyl)-2,3,4,5-tetrahydro-1H-benzo[d]azepin-7-ylamino]-pyrimidin-4-ylamino}-N,N-dimethyl-benzenesulfonamide] are 6.00 to 7.00 and greater than 7.00.
In the case of `CCN1CCCOc2cc(Nc3ncc(Cl)c(N[C@@H]4CCCC[C@H]4NS(C)(=O)=O)n3)c(F)cc21` [Example 1687, N-{(1R,2R)-2-[5-Chloro-2-(9-ethyl-2-fluoro-6,7,8,9-tetrahydro-5-oxa-9-aza-benzocyclohepten-3-ylamino)-pyrimidin-4-ylamino]-cyclohexyl}-methanesulfonamide], the pIC50 in assay [1] (read-out: cMet Activity) was 5.00 to 6.00; in assay [2], greater than 7.00.
On the same counts, the results for `CCN1CCCOc2cc(Nc3ncc(Cl)c(Nc4ccc(N5CCOCC5)cc4OC)n3)c(F)cc21` [Example 1688, 5-Chloro-N*2*-(9-ethyl-2-fluoro-6,7,8,9-tetrahydro-5-oxa-9-aza-benzocyclohepten-3-yl)-N*4*-(2-methoxy-4-morpholin-4-yl-phenyl)-pyrimidine-2,4-diamine] are less than 5.00 and 6.00 to 7.00.
On the same counts, the results for `COCCN1CCc2ccc(Nc3ncc(Cl)c(Nc4ccc(N5CCOCC5)cc4OCCC#N)n3)cc2CC1` [Example 1689, 3-(2-{5-Chloro-2-[3-(2-methoxy-ethyl)-2,3,4,5-tetrahydro-1H-benzo[d]azepin-7-ylamino]-pyrimidin-4-ylamino}-5-morpholin-4-yl-phenoxy)-propionitrile] are 5.00 to 6.00 and greater than 7.00.
On the same counts, the results for `CC1(C)CCC(=O)Nc2cc(Nc3ncc(Cl)c(Nc4ccc(N5CCOCC5)cc4OCCC#N)n3)ccc21` [Example 1690, 3-{2-[5-Chloro-2-(5,5-dimethyl-2-oxo-2,3,4,5-tetrahydro-1H-benzo[b]azepin-8-ylamino)-pyrimidin-4-ylamino]-5-morpholin-4-yl-phenoxy}-propionitrile] are 5.00 to 6.00 and greater than 7.00.
In the case of `CCN1CCCOc2cc(Nc3ncc(Cl)c(Nc4c(F)cccc4C(=O)NC)n3)c(F)cc21` [Example 1691, 2-[5-Chloro-2-(9-ethyl-2-fluoro-6,7,8,9-tetrahydro-5-oxa-9-aza-benzocyclohepten-3-ylamino)-pyrimidin-4-ylamino]-3-fluoro-N-methyl-benzamide], the pIC50 in assay [1] (read-out: cMet Activity) and in assay [2] was greater than 7.00 each time.
As for `CCN1CCCOc2cc(Nc3ncc(Cl)c(N[C@@H]4CCCC[C@H]4NS(C)(=O)=O)n3)ccc21` [Example 1693, N-{(1R,2R)-2-[5-Chloro-2-(9-ethyl-6,7,8,9-tetrahydro-5-oxa-9-aza-benzocyclohepten-3-ylamino)-pyrimidin-4-ylamino]-cyclohexyl}-methanesulfonamide], the pIC50 in assay [1] (read-out: cMet Activity) is 6.00 to 7.00; in assay [2] it was greater than 7.00.
On the same counts, the results for `CCN1CCCOc2cc(Nc3ncc(Cl)c(Nc4ccc(N5CCOCC5)cc4OC)n3)ccc21` [Example 1694, 5-Chloro-N*2*-(9-ethyl-6,7,8,9-tetrahydro-5-oxa-9-aza-benzocyclohepten-3-yl)-N*4*-(2-methoxy-4-morpholin-4-yl-phenyl)-pyrimidine-2,4-diamine] are 5.00 to 6.00 and greater than 7.00.
On the same counts, the results for `COCCOc1cccc(F)c1Nc1nc(Nc2ccc3c(c2)NC(=O)CCC3)ncc1Cl` [Example 1695, 8-{5-Chloro-4-[2-fluoro-6-(2-methoxy-ethoxy)-phenylamino]-pyrimidin-2-ylamino}-1,3,4,5-tetrahydro-benzo[b]azepin-2-one] are 6.00 to 7.00 and 6.00 to 7.00.
On the same counts, the results for `COCCOc1cccc(F)c1Nc1nc(Nc2ccc3c(c2)CCN(CCOC)CC3)ncc1Cl` [Example 1696, 5-Chloro-N*4*-[2-fluoro-6-(2-methoxy-ethoxy)-phenyl]-N*2*-[3-(2-methoxy-ethyl)-2,3,4,5-tetrahydro-1H-benzo[d]azepin-7-yl]-pyrimidine-2,4-diamine] are 6.00 to 7.00 and greater than 7.00.
In the case of `CCN1CCCOc2ccc(Nc3ncc(Cl)c(Nc4ccsc4C(=O)NC)n3)cc21` [Example 1698, 3-[5-Chloro-2-(9-ethyl-6,7,8,9-tetrahydro-5-oxa-9-aza-benzocyclohepten-2-ylamino)-pyrimidin-4-ylamino]-thiophene-2-carboxylic acid methyl amide], the pIC50 in assay [1] (read-out: cMet Activity) and in assay [2] was 6.00 to 7.00 each time.
For the compound `CCN1C(=O)CCCc2c1ccc(Nc1ncc(Cl)c(N[C@@H]3[C@@H]4C[C@@H]([C@@H](O)[C@H]4O)[C@@H]3C(N)=O)n1)c2OC` [Example 1699, (1R,2S,3R,4S,5S,6R)-3-[5-Chloro-2-(1-ethyl-6-methoxy-2-oxo-2,3,4,5-tetrahydro-1H-benzo[b]azepin-7-ylamino)-pyrimidin-4-ylamino]-5,6-dihydroxy-bicyclo[2.2.1]heptane-2-carboxylic acid amide], the results for the pIC50 in assay [1] (read-out: cMet Activity) and in assay [2] were less than 5.00 and 6.00 to 7.00, respectively.
On the same counts, the results for `C=CCOc1cc(N2CCOCC2)cc(F)c1Nc1nc(Nc2ccc3c(c2)CCOC(=O)N3C)ncc1Cl` [Example 1700, 2-[4-(2-Allyloxy-6-fluoro-4-morpholin-4-yl-phenylamino)-5-chloro-pyrimidin-2-ylamino]-5-methyl-8,9-dihydro-5H-7-oxa-5-aza-benzocyclohepten-6-one] are 5.00 to 6.00 and greater than 7.00.
Take `CNC(=O)c1sccc1Nc1nc(Nc2ccc3c(c2)N(C(C)=O)CCCO3)ncc1Cl` [Example 1702, 3-[2-(9-Acetyl-6,7,8,9-tetrahydro-5-oxa-9-aza-benzocyclohepten-2-ylamino)-5-chloro-pyrimidin-4-ylamino]-thiophene-2-carboxylic acid methylamide]: the pIC50 in assay [1] (cMet Activity) is greater than 7.00; in assay [2], 5.00 to 6.00.
Consider `CNC(=O)c1ccccc1Nc1nc(Nc2ccc3c(c2)N(C(C)=O)CCCO3)ncc1Cl` [Example 1703, 2-[2-(9-Acetyl-6,7,8,9-tetrahydro-5-oxa-9-aza-benzocyclohepten-2-ylamino)-5-chloro-pyrimidin-4-ylamino]-N-methyl-benzamide], for which the pIC50 in assay [1] (read-out: cMet Activity) and in assay [2] was greater than 7.00 each time.
For `CNC(=O)c1cccc(F)c1Nc1nc(Nc2ccc3c(c2)N(C(=O)CN2CCCC2)CCCO3)ncc1Cl` [Example 1704, 2-{5-Chloro-2-[9-(2-pyrrolidin-1-yl-acetyl)-6,7,8,9-tetrahydro-5-oxa-9-aza-benzocyclohepten-2-ylamino]-pyrimidin-4-ylamino}-3-fluoro-N-methyl-benzamide], the pIC50 in assay [1] (read-out: cMet Activity) is 6.00 to 7.00; in assay [2], 5.00 to 6.00.
